{
  "source": "paper PMC8661032",
  "about": "“Broad-Spectrum Antibacterial Peptide Kills Extracellular and Intracellular Bacteria Without Affecting Epithelialization” (Frontiers in Microbiology, 2021)",
  "key": {"A. baumannii": {"system": "A. baumannii", "test": "microbe, parasite or virus in culture", "details": "for MIC: Acinetobacter baumannii", "experimental": "(§1) Briefly, bacterial colonies from blood agar plates were suspended and grown in Cation-Adjusted Mueller-Hinton Broth (CAMHB, […] Ca^2+, […] Mg^2+). The bacterial suspension was adjusted to 0.5 McFarland standard (∼1 × 10^8 colony-forming units (CFU)/ml) and serial diluted 1:200 in CAMHB (∼5 × 10^5 CFU/mL). […] The suspension was plated out on blood agar plates to confirm the CFU/ml. Both the microtiter plates and the blood agar plates were incubated at 37°C for 24 h."}, "P. aeruginosa": {"system": "P. aeruginosa", "test": "microbe, parasite or virus in culture", "details": "for MIC: Pseudomonas aeruginosa", "experimental": "as §1"}, "S. aureus": {"system": "S. aureus", "test": "microbe, parasite or virus in culture", "details": "for MIC: Staphylococcus aureus, CAMHB, 24 h, three independent experiments", "experimental": "as §1"}, "E. coli [1]": {"system": "E. coli", "test": "Growth inhibition assay (OD600 over 24 h)", "type": "cell-based, Escherichia coli", "set-up": "Reduction of viability E. coli (60 μg/ml): key to the marks not given beside the values", "details": "LB medium", "experimental": "An overnight culture of Escherichia coli was diluted 1:100 in Luria-Bertani (LB) medium and allowed to grow until an optical density (OD) at 600 nm (OD600) of 0.06–0.1. APIM-peptides were prepared by serial dilution in Milli-Q H2O and kept at 4°C. Fresh LB medium (60 μl) was added to a flat-bottom microtiter plate. The bacterial suspension was diluted 1:100 in LB, and 75 μl of this suspension was added to the wells. Finally, 15 μl of APIM-peptide solution (to final concentrations 60, 120, and 240 μg/ml) or distilled water (positive control) was added to the wells, reaching a total volume of 150 μl per well. Data are presented only for the dose that separated the effect of the different peptides, i.e., 60 μg/ml. A blank sterile medium was used as negative control. The plates were incubated with shaking at 510 rpm at 37°C inside a plate reader (TECAN, Spark®), and OD was read every hour over a period of 24 h.\nThe MIC for E. coli in LB medium is higher than that in CAMHB; thus, concentrations higher than the MIC given in Table 2 are used in the growth inhibition and mutagenesis assays. […]\nE. coli. Growth of E. coli in LB medium over 24 hours (Optical Density (OD) 600 nm) after addition\nof APIM-peptide variants 1-5 (60 µg/mL) at time t=0 (see Table 2). Negative (-) control is no\nbacteria added, positive (+) control is untreated bacteria.\nhighest inhibition of growth.\ncontrol (black filled line)."}, "HEK293 cells": {"system": "HEK293 cells", "experimental": "HEK293 cells (6,000 cells/well) were seeded in 96-well microtiter plates. After 4 h, APIM-peptides (12–48 μg/ml) were added, and the cells were incubated without change of media for up to 4 days. Viability was measured using the 3-(4,5-dimethylthiazol-2-yl)-2,5-diphenyltetrazolium bromide (MTT) assay as described ([Gilljam et al., 2009]).\n(1 picture or pasted object on this page, not shown here)"}, "[2]": {"system": "S. epidermidis MRSE (SO-SEP9-1)", "details": "SO-SEP9-1, 24 h", "experimental": "as §1"}, "E. coli [3]": {"system": "E. coli", "test": "Rifampicin (RifR) mutagenesis assay after UV-C", "type": "cell-based, Escherichia coli", "details": "for Reduction of mutation frequency E. coli (20 μg/ml): 20 μg/ml peptide, UV-C 20 mJ/cm^2, RifR assay, relative to untreated control", "experimental": "The rifampicin (Rif^R) mutagenesis assay was performed as described ([Nedal et al., 2020]). Briefly, an overnight culture of E. coli was diluted 1:1,000 and grown until an OD600 of 0.01. APIM-peptides (20 μg/ml) were added to LB media with glass beads (for uniform distribution of APIM-peptides) and incubated for 30 min at 37°C. The pellets were next collected, resuspended in 500 μl PBS, and exposed to UV-C (20 mJ/cm^2) in a six-well plate at 4°C. The unexposed bacteria (-UV) were otherwise handled exactly like the UV-exposed bacteria. Next, the cells were resuspended in LB media and incubated in a rotary shaker at 37°C at 250 rpm for 2 h before being harvested, diluted, and plated on LB with soft agar with and without rifampicin (100 μg/ml). Mutation frequency, Rif^R/10^8, is obtained as follows: (number of colonies on the rifampicin plate (Rif^R)/(number of colonies on LB plates without antibiotics), per milliliter of bacterial suspension. […]\nmutagenesis in E. coli more efficiently than the other peptide variants.\nIncrease in mutation frequencies after treatment with UV-C (20 mJ/cm2) relative to spontaneous mutations frequencies using the RifR assay were determined. This increase is set to 100% for untreated control, and % reduction after addition of peptides 1-5 (20 μg/mL) are shown. Mean ± SD from three independent experiments. * p<0.05, ** p<0.005"}, "E. coli [4]": {"system": "E. coli", "test": "microbe, parasite or virus in culture", "details": "K-12 MG1655; CLSI broth microdilution, CAMHB, 37°C, 24 h, visible growth; net peptide concentration", "experimental": "as §1"}},
  "note": "Residues, ends and D or L forms follow the SMILES beside them.",
  "data": [
    {"smiles": "C[C@@H](O)[C@H]1C(=O)N2C(C(=O)O)=C(S[C@@H]3CN[C@H](C(=O)N(C)C)C3)[C@H](C)[C@H]12", "note": "[Meropenem, meropenem]", "values": [
      {"measurement": "Combination effect with 0.5× MIC betatide", "setting": "A. baumannii; ATCC 19606", "result": "None"},
      {"measurement": "MIC", "setting": "A. baumannii; 24 h", "result": 512, "unit": "µg/mL"},
      {"measurement": "MIC", "setting": "A. baumannii; ATCC19606, 24 h", "result": 4, "unit": "µg/mL"},
      {"measurement": "Combination effect with 0.5× MIC betatide", "setting": "A. baumannii; SO-ABA19-1 (ESBL-CARBA-D)", "result": "None"},
      {"measurement": "Combination effect with 0.5× MIC betatide", "setting": "P. aeruginosa; ATCC 27853", "result": "None"},
      {"measurement": "MIC", "setting": "P. aeruginosa; 24 h", "result": 64, "unit": "µg/mL"},
      {"measurement": "MIC", "setting": "P. aeruginosa; ATCC27853, 24 h", "result": 0.5, "unit": "µg/mL"},
      {"measurement": "Combination effect with 0.5× MIC betatide", "setting": "P. aeruginosa; SO-PAE19-1 (multidrug resistant)", "result": "Additive 2×"}
    ]},
    {"smiles": "COc1cccc(OC)c1C(=O)N[C@@H]1C(=O)N2[C@@H]1SC(C)(C)[C@@H]2C(=O)O", "note": "[Methicillin, methicillin]", "values": [
      {"measurement": "Combination effect with 0.5× MIC betatide", "setting": "S. aureus; ATCC 29213", "result": "Additive 2×"},
      {"measurement": "Combination effect with 0.5× MIC betatide", "setting": "S. aureus; SO-SAU19-1 (MRSA)", "result": "Additive 4×"},
      {"measurement": "MIC", "setting": "S. aureus; ATCC29213, 24 h, Reference strain ATCC 29213", "result": 1, "unit": "µg/mL"},
      {"measurement": "MIC", "setting": "S. aureus; MRSA, Clinical isolate SO-SAU19-1 (MRSA)", "result": 8, "unit": "µg/mL"}
    ]},
    {"smiles": "CC[C@H](C)[C@H](NC(=O)[C@H](CCCCN)NC(=O)[C@H](CCCNC(=N)N)NC(=O)[C@H](CCCCN)NC(=O)[C@H](CCCCN)NC(=O)[C@H](CCCCN)NC(=O)[C@H](Cc1c[nH]c2ccccc12)NC(=O)[C@H](CCCCN)NC(=O)[C@@H](NC(=O)[C@H](CC(C)C)NC(=O)[C@H](Cc1c[nH]c2ccccc12)NC(=O)[C@H](CCCNC(=N)N)NC(=O)[C@H](CC(=O)O)NC(=O)[C@H](CCSC)NC(C)=O)C(C)C)C(=O)N[C@@H](CCCNC(=N)N)C(=O)N[C@@H](CCCNC(=N)N)C(=O)N[C@@H](CCCNC(=N)N)C(=O)N[C@@H](CCCNC(=N)N)C(=O)N[C@@H](CCCNC(=N)N)C(=O)N[C@@H](CCCNC(=N)N)C(=O)N[C@@H](CCCNC(=N)N)C(=O)N[C@@H](CCCNC(=N)N)C(=O)N[C@@H](CCCNC(=N)N)C(=O)N[C@@H](CCCNC(=N)N)C(=O)N[C@@H](CCCNC(=N)N)C(N)=O", "note": "[Peptide 1] (Ac-MDRWLVKWKKKRKIRRRRRRRRRRR-NH2)", "values": [
      {"measurement": "inhibition of growth of E. coli (OD 600 nm)", "setting": "E. coli [1]; 60 µg/mL, over 24 hours, Supplementary Figure S1", "result": "least efficient"},
      {"measurement": "Reduction of viability HEK293 (24 μg/ml)", "setting": "HEK293 cells", "result": "+"},
      {"measurement": "MIC S. epidermidis MRSE", "setting": "[2]", "result": 32, "unit": "µg/mL"},
      {"measurement": "Reduction of mutation frequency E. coli (20 μg/ml)", "setting": "E. coli [3]", "result": "+"},
      {"measurement": "MIC E. coli", "setting": "E. coli [4]", "result": 32, "unit": "µg/mL"}
    ]},
    {"smiles": "CC[C@H](C)[C@H](NC(=O)CNC(=O)[C@H](CCCCN)NC(=O)[C@@H](NC(=O)[C@H](CC(C)C)NC(=O)[C@H](Cc1c[nH]c2ccccc12)NC(=O)[C@H](CCCNC(=N)N)NC(=O)[C@H](CC(=O)O)NC(=O)[C@H](CCSC)NC(C)=O)C(C)C)C(=O)N[C@@H](CC(C)C)C(=O)N[C@@H](CCC(N)=O)C(=O)N[C@@H](Cc1c[nH]c2ccccc12)C(=O)N[C@@H](CCCNC(=N)N)C(=O)N[C@@H](CCCCN)C(=O)N[C@H](C(=O)N[C@@H](CCCNC(=N)N)C(=O)N[C@@H](CCCNC(=N)N)C(=O)N[C@@H](CCCNC(=N)N)C(=O)N[C@@H](CCCNC(=N)N)C(=O)N[C@@H](CCCNC(=N)N)C(=O)N[C@@H](CCCNC(=N)N)C(=O)N[C@@H](CCCNC(=N)N)C(=O)N[C@@H](CCCNC(=N)N)C(=O)N[C@@H](CCCNC(=N)N)C(=O)N[C@@H](CCCNC(=N)N)C(N)=O)[C@@H](C)CC", "note": "[Peptide 3] (Ac-MDRWLVKGILQWRKIRRRRRRRRRR-NH2)", "values": [
      {"measurement": "Reduction of viability HEK293 (24 μg/ml)", "setting": "HEK293 cells", "result": "+"},
      {"measurement": "MIC S. epidermidis MRSE", "setting": "[2]", "result": 16, "unit": "µg/mL"},
      {"measurement": "UV-induced mutation frequencies relative to control", "setting": "E. coli [3]; 20 μg/mL, UV-C 20 mJ/cm2, RifR assay, three independent experiments", "result": "significantly reduced"},
      {"measurement": "Reduction of mutation frequency E. coli (20 μg/ml)", "setting": "E. coli [3]", "result": "++"},
      {"measurement": "MIC E. coli", "setting": "E. coli [4]", "result": 32, "unit": "µg/mL"}
    ]},
    {"smiles": "CC[C@H](C)[C@H](NC(=O)CNC(=O)[C@H](CCCCN)NC(=O)[C@@H](NC(=O)[C@H](CC(C)C)NC(=O)[C@H](Cc1c[nH]c2ccccc12)NC(=O)[C@H](CCCNC(=N)N)NC(=O)[C@H](CC(=O)O)NC(=O)[C@H](CCSC)NC(C)=O)C(C)C)C(=O)N[C@@H](CC(C)C)C(=O)N[C@@H](CCC(N)=O)C(=O)N[C@@H](Cc1c[nH]c2ccccc12)C(=O)N[C@@H](CCCNC(=N)N)C(=O)N[C@@H](CCCCN)C(=O)N[C@H](C(=O)N[C@@H](CCCNC(=N)N)C(=O)N[C@@H](CCCNC(=N)N)C(=O)N[C@@H](CCCNC(=N)N)C(=O)N[C@@H](CCCNC(=N)N)C(=O)N[C@@H](CCCNC(=N)N)C(=O)N[C@@H](CCCNC(=N)N)C(=O)N[C@@H](CCCNC(=N)N)C(=O)N[C@@H](CCCNC(=N)N)C(=O)N[C@@H](CCCNC(=N)N)C(N)=O)[C@@H](C)CC", "note": "[Peptide 4] (Ac-MDRWLVKGILQWRKIRRRRRRRRR-NH2)", "values": [
      {"measurement": "Reduction of viability E. coli (60 μg/ml)", "setting": "E. coli [1]; 60 μg/ml peptide, OD600 every hour over 24 h, relative to untreated control", "result": "++"},
      {"measurement": "MIC S. epidermidis MRSE", "setting": "[2]", "result": 16, "unit": "µg/mL"},
      {"measurement": "MIC E. coli", "setting": "E. coli [4]", "result": 32, "unit": "µg/mL"}
    ]}
  ]
}
